What follows are molecules tested against GLP-1 Receptor (Homo sapiens, UniProt P43220) (assay: GLP-1R agonist cAMP stimulation assay). Conditions: not given.
GLP-1 Receptor, sequence (P43220 24-463, species assumed): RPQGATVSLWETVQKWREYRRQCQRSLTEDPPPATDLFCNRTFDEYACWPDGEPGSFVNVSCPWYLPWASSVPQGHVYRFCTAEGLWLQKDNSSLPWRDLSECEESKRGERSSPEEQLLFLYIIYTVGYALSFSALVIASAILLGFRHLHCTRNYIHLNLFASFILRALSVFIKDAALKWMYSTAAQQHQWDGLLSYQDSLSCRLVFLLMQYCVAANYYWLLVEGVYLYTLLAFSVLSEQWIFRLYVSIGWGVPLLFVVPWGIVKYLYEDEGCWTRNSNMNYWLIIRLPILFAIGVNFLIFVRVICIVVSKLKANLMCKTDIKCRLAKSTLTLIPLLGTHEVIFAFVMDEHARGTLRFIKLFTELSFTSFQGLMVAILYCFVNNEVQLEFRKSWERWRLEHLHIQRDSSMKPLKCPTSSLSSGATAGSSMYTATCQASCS
Format: cell-based
Summary of the method: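 HEK293/CRE-Luc cells stably expressing GLP-1R, 1000 cells/well in DPBS with 0.5 mM IBMX and 0.1% BSA, exposed to ½-log compound dilutions 30 min at 37 °C. cAMP measured by HTRF (665/615 nm) after 1 h at room temperature. % activity normalised between vehicle and MAX controls.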
`Cc1n[nH]c(-c2ccc3c(c2)nc(CN2CCC(Oc4ccnc(Cc5ccc(Cl)cc5)n4)CC2)n3C[C@@H]2CCO2)n1` [Compound 126a, 2-{[4-({2-[(4-chlorophenyl)methyl]pyrimidin-4-yl}oxy)piperidin-1-yl]methyl}-5-(3-methyl-1H-1,2,4-triazol-5-yl)-1-{[(2S)-oxetan-2-yl]methyl}-1H-1,3-benzodiazole] was tested, and the EC50 was 320 pM. With `Cc1ncc(-c2ccc3c(c2)nc(CN2CCC(Oc4ccnc(Cc5ccc(Cl)cc5)n4)CC2)n3C[C@@H]2CCO2)s1` [Compound 129a, 2-{[4-({2-[(4-chlorophenyl)methyl]pyrimidin-4-yl}oxy)piperidin-1-yl]methyl}-5-(2-methyl-1,3-thiazol-5-yl)-1-{[(2S)-oxetan-2-yl]methyl}-1H-1,3-benzodiazole] the EC50 was 7600 pM. `FC(F)(F)c1nnc(-c2ccc3c(c2)nc(CN2CCC(Oc4ccnc(Cc5ccc(Cl)cc5)n4)CC2)n3C[C@@H]2CCO2)[nH]1` [Compound 106a, 2-{[4-({2-[(4-chlorophenyl)methyl]pyrimidin-4-yl}oxy)piperidin-1-yl]methyl}-1-{[(2S)-oxetan-2-yl]methyl}-5-[5-(trifluoromethyl)-4H-1,2,4-triazol-3-yl]-1H-1,3-benzodiazole] gave an EC50 of 98 pM. With `COCc1nnc(-c2cc3nc(CN4CCC(Oc5cccc(Cc6ccc(Cl)cc6F)n5)CC4)n(C[C@@H]4CCO4)c3cn2)[nH]1` [Compound 183a, 2-[(4-chloro-2-fluorophenyl)methyl]-6-{[1-({6-[5-(methoxymethyl)-4H-1,2,4-triazol-3-yl]-3-{[(2S)-oxetan-2-yl]methyl}-3H-imidazo[4,5-c]pyridin-2-yl}methyl)piperidin-4-yl]oxy}pyridine] the EC50 was 3300 pM.

Same assay, conditions: HEK293/GLP1R/CRE-LUC cells, cAMP dynamic 2 Kit (Cisbio), 30 min incubation at 37° C.; read-out: EC50
`Fc1cc(Cl)ccc1Cc1nccc(OC2CCN(Cc3nc4cc(-c5nnc(C(F)(F)F)[nH]5)cnc4n3C[C@@H]3CCO3)CC2)n1` [Compound 142a, 2-[(4-chloro-2-fluorophenyl)methyl]-4-({1-[(3-{[(2S)-oxetan-2-yl]methyl}-6-[5-(trifluoromethyl)-4H-1,2,4-triazol-3-yl]-3H-imidazo[4,5-b]pyridin-2-yl)methyl]piperidin-4-yl}oxy)pyrimidine] showed an EC50 of 48 pM. `Fc1cnc(Cc2ccc(Cl)cc2)nc1OC1CCN(Cc2nc3cc(-c4nnc(C(F)(F)F)[nH]4)ncc3n2C[C@@H]2CCO2)CC1` [Compound 149a, 2-[(4-chlorophenyl)methyl]-5-fluoro-4-({1-[(3-{[(2S)-oxetan-2-yl]methyl}-6-[5-(trifluoromethyl)-4H-1,2,4-triazol-3-yl]-3H-imidazo[4,5-c]pyridin-2-yl)methyl]piperidin-4-yl}oxy)pyrimidine] was tested, and the EC50 was 56 pM. With `Fc1cc(Cl)ccc1Cc1cccc(OC2CCN(Cc3nc4cc(-c5nnc(C(F)(F)F)[nH]5)nnc4n3C[C@@H]3CCO3)CC2)n1` [Compound 181a, 2-[(4-chloro-2-fluorophenyl)methyl]-6-({1-[(7-{[(2S)-oxetan-2-yl]methyl}-3-[5-(trifluoromethyl)-4H-1,2,4-triazol-3-yl]-7H-imidazo[4,5-c]pyridazin-6-yl)methyl]piperidin-4-yl}oxy)pyridine] the EC50 was 580 pM. Molecule `Fc1cc(Cl)ccc1Cc1nccc(OC2CCN(Cc3nc4cc(-c5nnc(C(F)(F)F)[nH]5)nnc4n3C[C@@H]3CCO3)CC2)n1` [Compound 182a, 2-[(4-chloro-2-fluorophenyl)methyl]-4-({1-[(7-{[(2S)-oxetan-2-yl]methyl}-3-[5-(trifluoromethyl)-4H-1,2,4-triazol-3-yl]-7H-imidazo[4,5-c]pyridazin-6-yl)methyl]piperidin-4-yl}oxy)pyrimidine] has an EC50 of 200 pM. With `Clc1ccc(Cc2nccc(OC3CCN(Cc4nc5cc(-c6nnn[nH]6)ccc5n4Cc4cn[nH]c4)CC3)n2)cc1` [Compound 153, 2-{[4-({2-[(4-chlorophenyl)methyl]pyrimidin-4-yl}oxy)piperidin-1-yl]methyl}-1-[(1H-pyrazol-4-yl)methyl]-5-(1H-1,2,3,4-tetrazol-5-yl)-1H-1,3-benzodiazole] the EC50 was 180 pM.

Source: US20240083886A1, “HETEROCYCLIC GLP-1 AGONISTS” (Gasherbrum Bio, Inc., priority 2020, published 2024)
